Reference: ChEMBL document CHEMBL1147836, “Benzo[b]thiophene-2-carboxamides and benzo[b]furan-2-carboxamides are potent antagonists of the human H3-receptor” (Bioorg Med Chem Lett, 2006)

Target: Histamine H3 receptor (Homo sapiens, UniProt Q9Y5N1)
Test: Antagonist activity at human histamine H3 receptor by [35S]GTP-gamma-S assay
Type: functional

Sequence of Histamine H3 receptor (Q9Y5N1 whole entry): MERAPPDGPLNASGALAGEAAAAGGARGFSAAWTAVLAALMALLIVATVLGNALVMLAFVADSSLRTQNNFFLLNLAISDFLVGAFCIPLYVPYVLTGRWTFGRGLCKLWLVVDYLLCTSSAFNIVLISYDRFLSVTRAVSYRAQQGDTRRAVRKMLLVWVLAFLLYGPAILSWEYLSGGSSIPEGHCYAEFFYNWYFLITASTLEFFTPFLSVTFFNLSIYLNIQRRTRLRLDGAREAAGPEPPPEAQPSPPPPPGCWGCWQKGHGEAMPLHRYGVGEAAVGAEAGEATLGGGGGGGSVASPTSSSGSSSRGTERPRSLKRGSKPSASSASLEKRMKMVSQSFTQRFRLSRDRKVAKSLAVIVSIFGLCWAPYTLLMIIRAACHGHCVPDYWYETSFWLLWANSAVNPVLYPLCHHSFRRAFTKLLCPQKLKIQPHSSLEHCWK

Row | SMILES | Ki [nM]
1 | O=C(c1cc2ccccc2s1)N1CCC[C@H]1CN1CCCC1 | 4
2 | O=C(c1cnc2ccccc2c1)N1CCC[C@H]1CN1CCCCC1 | > 150
3 | O=C(c1cc2cc(C(F)(F)F)ccc2o1)N1CCC[C@H]1CN1CCCCC1 | 7
4 | CCOc1cccc2cc(C(=O)N3CCC[C@H]3CN3CCCC3)oc12 | 7
5 | CCN(CC)C[C@@H]1CCCN1C(=O)c1cc2cc(C(F)(F)F)ccc2o1 | 14
6 | O=C(c1cc2cc(Cl)ccc2o1)N1CCC[C@H]1CN1CCCC1 | 5
7 | O=C(c1cc2cc(OC(F)(F)F)ccc2o1)N1CCC[C@H]1CN1CCCC1 | 11
8 | O=C(c1cnc2ccccc2c1)N1CCC[C@H]1CN1CCCC1 | > 150
9 | CCN(CC)C[C@@H]1CCCN1C(=O)c1cc2ccc(C(F)(F)F)cc2o1 | 46
10 | O=C(c1sc2ccccc2c1Cl)N1CCC[C@H]1CN1CCCC1 | 12
11 | O=C(c1cc2ccc(C(F)(F)F)cc2o1)N1CCC[C@H]1CN1CCCCC1 | 22
12 | N#Cc1ccc2oc(C(=O)N3CCC[C@H]3CN3CCCC3)cc2c1 | 5
13 | O=C(c1cc2ccc(C(F)(F)F)cc2o1)N1CCC[C@H]1CN1CCCC1 | 15
14 | O=C(c1cc2cc(C(F)(F)F)ccc2o1)N1CCC[C@H]1CN1CCCC1 | 4
